Read-outs that look alike come from different tables or passages of the source.
Tests used:
[1] = vapour pressure measurement (Clausius-Clapeyron diagram); assay type: physicochemical
Description: The curve plotted in FIG. 2B represents the Clausius-Clapeyron diagram of the 1,3,5-trimethylborazine molecule, namely its vapour pressure measurement. 1,3,5-trimethylborazine has a vapour pressure of 40 Torr at 50° C. and greater than 200 Torr at 100° C., indicating a good volatility.

rat = settings: cited from earlier work
[2] = thermogravimetric analysis; assay type: physicochemical; settings: ramp 20 to 400° C., 10° C./min, 30 mL/min helium
Description: A thermogravimetric analysis of 1,3,5-trimethylborazine was carried out over a temperature ramp of 20 to 400° C., with a rise of 10° C./min under 30 mL/min of helium.
Curve 2 from FIG. 2A plotted as a lighter line represents the loss in mass of the sample as a function of the temperature. The final value of the residue level of 3.2% indicates a high purity and good thermal stability of 1,3,5-trimethylborazine. This residue level is reached at 165° C.
Thermogravimetric analysis of tri-butylborane was carried out over a temperature ramp of 20 to 400° C., with a rise of 10° C./min under 30 mL/min of helium.
Curve 2 from FIG. 4 plotted as a lighter line represents the loss in mass of the sample as a function of the temperature.

CN1BN(C)BN(C)B1 [1,3,5-trimethylborazine]
vapour pressure ([1]; at 50° C.): 40 Torr | vapour pressure ([1]; at 100° C.): greater than 200 Torr | toxicity qualification with reference to LD50 oral, rat (rat; in vivo, po): slightly toxic to almost non-toxic | final value of the residue level (thermal stability) [2]: 3.2%

B.B [diborane]
toxicity qualification with reference to LD50 oral, rat (rat; oral): lethal

CB(C)C [trimethylborane]
toxicity qualification with reference to LD50 oral, rat (rat; oral): very toxic

CCCCB(CCCC)CCCC [tri-n-butylborane]
final value of the residue level (thermal stability) [2]: 0.6%

Reference: US8324014B2, “Process for depositing boron compounds by CVD or PVD” (L'Air Liquide Societe Anonyme pour l'Etude et …, priority 2007, dated 2012)
